A short description of this data set: MTT assay for cell viability testing. It counts as cell-based, rats. The following applies: rat; H9C2 cells, 48 hours treatment at the concentrations of Table 3 (0.4 to 25 µg/ml); DMSO group = 100%; Figure 1. How it is done:
1.1: cell culture of H9C2 cell line
H9C2 cell line is a cardiac myoblast derived from the rats and is purchased from Food Industry Research and Development Institute, Taiwan. The culture medium is 90% (v/v) Dulbecco's modified Eagle's medium with 4 mM L-glutamine (Gibco™, Cat.12800017) adjusted to contain 4.5g/L glucose and 1.5g/L sodium bicarbonate (Sigma, Cat.S5761) and 10% (v/v) fetal bovine serum (Gibco™, Cat.10437028). Incubate at 37°C in a 5% (v/v) CO2 in air atmosphere.
1.2: MTT assay for cell viability testing
In order to find out the feasible concentration of compounds without cytotoxicity, cells was cultured to 90% confluency and cells were seeded in a 24-well plate at a concentration of 1.5*10^4 cell/well. […] After washing with PBS buffer (phosphate buffered saline), 0.5 mg/ ml of MTT (Thiazolyl Blue Tetrazolium Bromide; Sigma, Cat.M2128) was added and incubate the 24-well plate at 37°C for 4 hours. […] Then the supernatant was removed and 200 µL DMSO was added to dissolve the crystal. Mix each sample again using a pipette and read absorbance at 570 nm (the values are averages of triplicate). The value of the DMSO group is 100% to represent that the cell viability is 100%.
For `O=C(O)/C=C/c1ccc(OC(=O)CCCC(=O)O)cc1` [Compound 1], the viability at 48 h was in the range of 80 to 120%.
For the compound `O=C(O)/C=C/c1ccc(OC(=O)CCCC(=O)O)c(O)c1` [Compound 2], the viability at 48 h was in the range of 80 to 120%.
Regarding `O=C(O)/C=C/c1ccc(OC(=O)CCCC(=O)O)c(OC(=O)CCCC(=O)O)c1` [Compound 3], the viability at 48 h is 80 to 120%.
For `O=C(O)/C=C/c1ccc(OC(=O)CCCCC(=O)O)cc1` [Compound 4], the viability at 48 h was 80 to 120%.
As to `COC(=O)CCCCC(=O)Oc1ccc(/C=C/C(=O)O)cc1` [Compound 5], the viability at 48 h fell in the range of 80 to 120%.
Take `COC(=O)CCCCC(=O)Oc1ccc(/C=C/C(=O)O)cc1OC(=O)CCCCC(=O)OC` [Compound 6]: the viability at 48 h was 80 to 120%.
On to `CC(=O)Oc1ccccc1C(=O)Oc1ccc(/C=C/C(=O)O)cc1` [Compound 7], for which the viability at 48 h lay in the range of 80 to 120%.
For the compound `CC(=O)Oc1ccccc1C(=O)Oc1ccc(/C=C/C(=O)O)cc1O` [Compound 8], the viability at 48 h is 80 to 120%.
Then `O=C(O)/C=C/c1ccc(OC(=O)Cc2cccc(Cl)c2)cc1` [Compound 9], with 80 to 120%; and `O=C(O)/C=C/c1ccc(OC(=O)Cc2cccc(Cl)c2)c(OC(=O)Cc2cccc(Cl)c2)c1` [Compound 10], with 80 to 120%; and `COC(=O)/C=C/c1ccc(OC(=O)Cc2cccc(Cl)c2)c(OC(=O)Cc2cccc(Cl)c2)c1` [Compound 11], with 80 to 120%.
Consider `CC(C)(C)OC(=O)NCCCC(=O)Oc1ccc(/C=C/C(=O)O)cc1OC(=O)CCCNC(=O)OC(C)(C)C` [Compound 12], for which the viability at 48 h was in the range of 80 to 120%.
As to `O=C(O)/C=C/c1ccc(NC(=O)CCCC(=O)O)cc1` [Compound 13], the viability at 48 h was in the range of 80 to 120%.
Then `COC(=O)/C=C/C(=O)Nc1ccc(/C=C/C(=O)O)cc1` [Compound 14], with 80 to 120%; and `CC(=O)Oc1ccccc1C(=O)N(C(=O)c1ccccc1OC(C)=O)c1ccc(/C=C/C(=O)O)cc1` [Compound 15], with 80 to 120%.
For `COC(=O)/C=C/c1ccccc1` [Compound 17], the viability at 48 h lay within 80 to 120%.
Consider `COC(=O)/C=C/c1ccc(O)c(O)c1` [Compound 18], for which the viability at 48 h lay in the range of 80 to 120%.
In the case of `O=C(/C=C/c1ccccc1)OCc1ccc(O)cc1` [Compound 21], the viability at 48 h was 80 to 120%.
In the case of `O=C(O)/C=C/c1ccc(O)cc1O` [Compound 24], the viability at 48 h was in the range of 80 to 120%.
As for `CC(=O)C(=O)Oc1ccc(/C=C/C(=O)O)cc1` [Compound 27], the viability at 48 h is 80 to 120%.
Consider `CC(=O)Oc1ccc(/C=C/C(=O)O)cc1` [Compound 28], for which the viability at 48 h was in the range of 80 to 120%.
In the case of `COC(=O)/C=C/c1ccc(OC(=O)c2ccccc2OC(C)=O)c(OC(=O)c2ccccc2OC(C)=O)c1` [Compound 29], the viability at 48 h was in the range of 80 to 120%.
Then `O=C(O)/C=C/c1ccc(OC(=O)c2cccnc2)cc1` [Compound 30], with 80 to 120%; and `Nc1ccc(/C=C/C(=O)O)cc1` [Compound 31], with 80 to 120%; and `O=C(O)/C=C/C(=O)Nc1ccc(/C=C/C(=O)O)cc1` [Compound 32], with 80 to 120%.
Then `O=C(O)/C=C/c1ccc(NC(=O)c2ccccc2O)cc1` [Compound 33], with 80 to 120%; and `O=C(/C=C/c1ccc2c(c1)OCO2)Nc1ccc(O)cc1` [Compound 34], with 80 to 120%.
Turning to `Cc1ccc(/C=C/C(=O)c2cccc(NC(=O)/C=C/c3ccc4c(c3)OCO4)c2)s1` [Compound 35], the viability at 48 h lay within 80 to 120%.
`O=C(O)/C=C/c1ccncc1` [Compound 36]: the viability at 48 h lay within 80 to 120%.
Regarding `O=C(O)/C=C/c1cccnc1` [Compound 37], the viability at 48 h is 80 to 120%.
Take `O=C(O)/C=C/c1cccs1` [Compound 38]: the viability at 48 h lay within 80 to 120%.
With `O=C(O)/C=C/c1ccsc1` [Compound 39], the viability at 48 h lay in the range of 80 to 120%.
As to `C=CCOc1ccc(/C=C/C(=O)c2sccc2N)c(OCC=C)c1` [Compound 40], the viability at 48 h lay in the range of 80 to 120%.
Take `O=C(/C=C/c1ccsc1)c1ccc(O)cc1` [Compound 41]: the viability at 48 h was 80 to 120%.
`O=C(/C=C/c1ccc2c(c1)OCO2)n1cccc1` [Compound 42]: the viability at 48 h was in the range of 80 to 120%.
In the case of `O=C(/C=C/c1ccccn1)c1ccccn1` [Compound 43], the viability at 48 h is 80 to 120%.
Take `Cc1ccc(/C=C/C(=O)c2sc(N)nc2C)s1` [Compound 44]: the viability at 48 h fell in the range of 80 to 120%.
To `O=C(/C=C/c1ccc(O)c(O)c1)O[C@H](Cc1ccc(O)c(O)c1)C(=O)O` [Compound 46] belongs 80 to 120%.

The viability is a read-out of living cells in per cent, often relative to untreated cells.

The record behind these values is patent EP3725763A1, “MYOCARDIAL REGENERATION PROMOTING COMPOUNDS, PREPARATION METHOD THEREOF, PHARMACEUTICAL COMPOSITION, AND THEIR USE” (priority 2019, dated 2020).
